We go through three compounds from publication PMC10708030, “Cytotoxic Natural Products Isolated from Cryptogramma crispa (L.) R. Br” (Molecules, 2023).

Broadly, the EC50 is the concentration giving half of the maximal effect.

The subject of data set [1] is myeloid leukaemia HL 60 cells. To be noted: cited from earlier work.
For data set [2] the following is noted: cited from earlier work.
Data set [3] concerns normal rat kidney epithelial cells (NRK). As to the kind of experiment: Cytotoxicity, WST-1 metabolic activity, NRK cells. Format: cell-based. The following applies: Epithelial cell, 72 h incubation, metabolic activity (WST-1), three experiments. As to the method: (§1) Stock solutions were prepared by dissolving pure compounds to a final concentration of 20 mM in DMSO. The normal rat kidney epithelial cells (NRK, ATCC no.: CRL-6509) and rat cardiomyoblasts (H9c2, ATCC no.: CRL-1446) were cultured in DMEM medium supplemented with 10% foetal bovine serum (FBS, Invitrogen, Carlsbad, CA, USA). When the cells reached 80% confluence, they were detached in a mild trypsin treatment (0.33 mg/mL trypsin for 5 min at 37 °C), centrifuged (160× g, 4 min), and reseeded in fresh medium to 25% confluence.
(§2) All media were supplemented with 1 IU/mL penicillin and 1 mg/mL streptomycin (both from Cambrex, Liège, Belgium) and incubated in a humidified atmosphere (37 °C, 5% CO2). […]
(§3) […] The plates were further incubated for two hours before the signal was recorded at 450 nm with a reference at 620 nm. […]
(§4) After the recording of WST-1, the cells were then fixed with 2% buffered formaldehyde (pH 7.4) with 0.01 mg/mL of the DNA-specific fluorescent dye, Hoechst 33342. The presence of dead (apoptotic or necrotic) cells was verified via differential interference contrast and fluorescence microscopy as previously described by Oftedal et al. and Myhren et al..
(§5) EC50 values were determined using four-parameter regression analysis described by Viktorsson et al. using SigmaPlot v14 software (Systat Software Inc., San Jose, CA, USA).
A general note: Formazan colour is commonly taken as a measure of viable cells.

Data set [4] deals with rat cardiomyoblasts (H9c2). As to the kind of experiment: Cytotoxicity, WST-1 metabolic activity, H9c2 cells. Format: cell-based. The following applies: 72 h incubation, metabolic activity (WST-1), three experiments. As to the method:
as §1, §2, §3, §4, §5

The test system of data set [5] is acute myeloid leukaemia cell line MOLM13. The data set can be described thus: Cytotoxicity, WST-1 metabolic activity, MOLM13 cells. Format: cell-based. The following applies: Homo sapiens, MOLM-13; 72 h incubation, metabolic activity (WST-1), 3 independent experiments. As to the method: as §1
The AML cell line MOLM13 (DSMZ no.: ACC554 [24]) was cultured in RPMI-1640 medium enriched with 10% FBS 8mM L-glutamine (Sigma Life Science, London, UK). […]
as §3, §4, §5

For `CC1=C2C(=CC(C)(C)[C@@H]2O)C(=O)[C@](C)(O)C12CC2` [illudin M], the “cytotoxic effects against HL 60 cells” value in data set [1] was 6 to 100 nM. Besides, in data set [2], the antibacterial activity result was “significant antibacterial activity”.
For the compound `CC1=C2C(=C[C@@](C)(CO)[C@@H]2O)C(=O)[C@](C)(O)C12CC2` [illudin S], the antibacterial activity result in data set [2] is “significant antibacterial activity”.
In the case of `Cc1cc2c(c(C)c1CCOC1OC(CO)C(O)C(O)C1O)C(=O)C(C)(C)C2OC(=O)CC(=O)O` [Compound 14, 3(R)-O-malonyl pteroside D], the EC50 in data set [3] is greater than 200 µM; in data set [4], greater than 200 µM; in data set [5], 197.88 ± 0.18 µM.
